In PMC11123841, “Discovery and Synthesis of Hydroxy-L-Proline Blockers of the Neutral Amino Acid Transporters SLC1A4 (ASCT1) and SLC1A5 (ASCT2)” (Molecules, 2024):

What was measured:
SLC1A5 = molecular target: T1, SLC1A5 (Mus musculus, UniProt P51912); assay: [3H]L-Gln radiolabeled uptake competition in oocytes; format: cell-based
T1 construct: expressed in transfected cells; host or cells: Xenopus laevis oocytes (cRNA injection)
T1 sequence (P51912 1-553): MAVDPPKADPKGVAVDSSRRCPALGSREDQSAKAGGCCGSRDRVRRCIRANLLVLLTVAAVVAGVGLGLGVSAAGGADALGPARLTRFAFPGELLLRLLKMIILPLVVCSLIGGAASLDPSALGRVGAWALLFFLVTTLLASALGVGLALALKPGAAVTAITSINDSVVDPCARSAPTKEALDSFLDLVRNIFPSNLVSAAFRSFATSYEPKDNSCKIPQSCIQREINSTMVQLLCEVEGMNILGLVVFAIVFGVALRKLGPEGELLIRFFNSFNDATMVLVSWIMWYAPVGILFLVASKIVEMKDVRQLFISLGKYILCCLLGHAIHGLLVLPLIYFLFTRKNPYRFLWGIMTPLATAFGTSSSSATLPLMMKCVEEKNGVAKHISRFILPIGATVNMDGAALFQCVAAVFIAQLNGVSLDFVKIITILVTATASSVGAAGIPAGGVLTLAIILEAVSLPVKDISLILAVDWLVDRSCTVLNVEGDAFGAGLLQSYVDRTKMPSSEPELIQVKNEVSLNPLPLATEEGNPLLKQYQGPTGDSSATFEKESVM
Description: (§1) Uptake was halted by washing 3 times with 4 °C ND96 buffer. Oocytes were then lysed in 0.1% Triton X-100, and radioactivity was counted via liquid scintillation. Dose response curves were generated by fitting fractional inhibition (I) to the expression I = Imax × [inhibitor]/([inhibitor] + IC50).
(A) SLC1A4 dose response curves for substrate activated anion currents using two-electrode voltage clamp of Xenopus lavies oocytes (−30 mV). […] (B) SLC1A5 dose response curve for substrate activated anion currents using two-electrode voltage clamp (−30 mV). […] Extracellular solutions contained 50 mM NaSCN.

SLC1A1 (EAAT3) = molecular target: T2, SLC1A1 (EAAT3) (Homo sapiens, UniProt P43005); assay: TEVC in oocytes expressing glutamate transporter; format: cell-based; settings: SLC1A1; applied at 1 mM
T2 construct: expressed in transfected cells; host or cells: Xenopus laevis oocytes (cRNA injection)
T2 sequence (P43005 1-524): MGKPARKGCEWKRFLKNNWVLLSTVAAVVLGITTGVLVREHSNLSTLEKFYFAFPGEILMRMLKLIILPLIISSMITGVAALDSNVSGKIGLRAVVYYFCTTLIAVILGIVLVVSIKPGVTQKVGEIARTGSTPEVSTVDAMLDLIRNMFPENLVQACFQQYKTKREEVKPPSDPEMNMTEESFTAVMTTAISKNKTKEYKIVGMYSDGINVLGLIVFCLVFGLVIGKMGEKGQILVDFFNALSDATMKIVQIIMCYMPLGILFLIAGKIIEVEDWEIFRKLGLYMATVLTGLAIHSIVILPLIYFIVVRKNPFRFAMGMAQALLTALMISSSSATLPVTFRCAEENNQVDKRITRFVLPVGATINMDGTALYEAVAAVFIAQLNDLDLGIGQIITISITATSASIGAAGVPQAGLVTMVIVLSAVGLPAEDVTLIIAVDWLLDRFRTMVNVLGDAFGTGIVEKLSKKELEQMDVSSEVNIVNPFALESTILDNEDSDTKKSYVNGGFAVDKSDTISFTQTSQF
Description: (§2) Additionally, 4-HP applied at 1 mM was used to assess activity at the glutamate transporters SLC1A3 or SLC1A1.
(§3) BPOHP activity was evaluated against the glutamate transporters paralogs within the SLC1A gene family (SLC1A 1–3) as well as at neutral amino acid transporters that share common ligand substrates with the SLC1 family including SLC38A1,2, and 4 (ATA1, ATA2, ATA3) and heteromeric transporters SLC7A10+SLC3A2 (asc-1/4f2).
as §1
(§4) Two-electrode voltage clamp (TEVC) transporter currents were recorded with a GeneClamp 500 amplifier and Digidata 1320A analog–digital interface (Molecular Devices, San Jose, CA, USA). Electrodes (0.2–1.0 MΩ) were filled with 3M KCl and the recording chamber was grounded with an agar bridge. Data were acquired with Axograph (v1.7.6) and LabChart (v7) and analyzed with Kaleidagraph software (v4.1) (Synergy, Reading, PA, USA). Uncoupled anion currents associated with the transport of substrate and block of SLC1A4 or SLC1A5 mediated leak conductance were recorded in the presence of Ringer with 50% substitution of NaCl by NaSCN to amplify the non-transported anion conductance.
(§5) Figure SM-2 TEVC from oocytes expressing SLC1A1-3 transporters.
(§6) (1 picture or pasted object on this page, not shown here)

SLC1A3 (EAAT1) = molecular target: T3, SLC1A3 (EAAT1) (Homo sapiens, UniProt P43003); assay: TEVC in oocytes expressing glutamate transporter; format: cell-based; settings: SLC1A3; applied at 1 mM
T3 construct: expressed in transfected cells; host or cells: Xenopus laevis oocytes (cRNA injection)
T3 sequence (P43003 whole entry): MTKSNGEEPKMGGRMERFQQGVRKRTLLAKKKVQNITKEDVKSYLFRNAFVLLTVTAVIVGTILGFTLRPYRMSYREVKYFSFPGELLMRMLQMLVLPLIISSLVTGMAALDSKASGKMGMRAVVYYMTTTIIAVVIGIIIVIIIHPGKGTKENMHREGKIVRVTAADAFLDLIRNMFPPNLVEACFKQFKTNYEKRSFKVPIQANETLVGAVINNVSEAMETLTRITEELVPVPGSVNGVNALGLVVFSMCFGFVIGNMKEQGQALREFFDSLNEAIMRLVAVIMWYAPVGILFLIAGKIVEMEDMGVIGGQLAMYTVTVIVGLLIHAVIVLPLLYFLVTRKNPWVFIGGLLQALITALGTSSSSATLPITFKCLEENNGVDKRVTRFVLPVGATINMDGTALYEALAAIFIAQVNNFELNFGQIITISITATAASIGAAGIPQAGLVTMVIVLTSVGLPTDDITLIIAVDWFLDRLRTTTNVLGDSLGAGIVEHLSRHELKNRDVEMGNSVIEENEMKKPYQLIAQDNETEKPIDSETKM
Description: as §2, §3, §1, §4, §5, §6

SLC38A2 (ATA2) = molecular target: T4, SLC38A2 (ATA2) (Homo sapiens, UniProt Q96QD8); assay: TEVC electrogenic coupled currents in oocytes; format: cell-based; settings: induced currents
T4 construct: expressed in transfected cells; host or cells: Xenopus laevis oocytes (cRNA injection)
T4 sequence (Q96QD8 1-506): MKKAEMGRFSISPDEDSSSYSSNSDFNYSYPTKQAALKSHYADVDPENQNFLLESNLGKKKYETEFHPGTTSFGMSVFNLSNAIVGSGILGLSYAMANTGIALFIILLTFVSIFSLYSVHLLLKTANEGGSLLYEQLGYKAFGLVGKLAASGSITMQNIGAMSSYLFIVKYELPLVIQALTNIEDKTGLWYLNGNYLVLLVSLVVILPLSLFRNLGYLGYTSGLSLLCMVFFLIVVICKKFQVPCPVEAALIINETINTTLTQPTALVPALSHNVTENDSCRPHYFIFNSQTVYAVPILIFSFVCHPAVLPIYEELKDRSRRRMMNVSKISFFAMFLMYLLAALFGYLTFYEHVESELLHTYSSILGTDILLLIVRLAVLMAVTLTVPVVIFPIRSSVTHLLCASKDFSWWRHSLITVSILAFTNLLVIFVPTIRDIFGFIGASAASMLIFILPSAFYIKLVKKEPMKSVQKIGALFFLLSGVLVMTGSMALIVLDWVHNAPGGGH
Description: as §2, §3, §1
Two-electrode voltage clamp (TEVC) transporter currents were recorded with a GeneClamp 500 amplifier and Digidata 1320A analog–digital interface (Molecular Devices, San Jose, CA, USA). […] Data were acquired with Axograph (v1.7.6) and LabChart (v7) and analyzed with Kaleidagraph software (v4.1) (Synergy, Reading, PA, USA). Uncoupled anion currents associated with the transport of substrate and block of SLC1A4 or SLC1A5 mediated leak conductance were recorded in the presence of Ringer with 50% substitution of NaCl by NaSCN to amplify the non-transported anion conductance. […]

SLC1A4 [1] = tested on: SLC1A4; set-up: method as in PMID 14502423; settings: cited from earlier work
SLC1A4 [2] = settings: concentrations up to 1 mM, oocytes expressing SLC1A4; cited from earlier work
ASCT = settings: extracellular 300 µM; cited from earlier work

| Compound | IC50 (SLC1A5) [µM] | TEVC current response or block (SLC1A1 (EAAT3)) | TEVC current response or block (SLC1A3 (EAAT1)) | Km (SLC38A2 (ATA2)) [mM] | increase in affinity for SLC1A4 over L-proline (SLC1A4 [1]) | chloride currents (SLC1A4 [2]) | heteroexchange release of intracellular radiolabeled ASCT substrates (ASCT) |
| --- | --- | --- | --- | --- | --- | --- | --- |
| O=C(O)[C@@H]1C[C@@H](O)CN1 [4-HP, trans-4-hydroxy-L-proline, reference compound] | 108 | No TEVC current response or block was observed | No TEVC current response or block was observed | 3.1 | approximately 20 fold |  |  |
| O=C(O)[C@@H]1CCCN1 [L-proline] |  |  |  |  |  | does not elicit detectable chloride currents | capable of inducing heteroexchange release |
